Data on 14 compounds can be found in paper PMC6270635, “Phenolic Esters of O-Desmethylvenlafaxine with Improved Oral Bioavailability and Brain Uptake” (Molecules, 2013).

One may read the melting point as the temperature of the solid-liquid transition.

Details of data set [1]: method as in PMID 21925241. Particulars: rat, oral administration; cited from earlier work.
Details of data set [2]: method as in PMID 23517291, PMID 23334675. Particulars: ODV as the succinate salt; cited from earlier work.
For data set [3] the following is noted: cited from earlier work.

On to `CN(C)CC(c1ccc(OC(=O)C(C)(C)C)cc1)C1(O)CCCCC1` (stereo not shown) [1a, 4-(2-(Dimethylamino)-1-(1-hydroxycyclohexyl)ethyl)phenyl pivalate], for which the melting point was in the range of 131 to 133 °C.

As to `CN(C)CC(c1ccc(OC(=O)C2CCCCC2)cc1)C1(O)CCCCC1` (stereo not shown) [1b, 4-(2-(Dimethylamino)-1-(1-hydroxycyclohexyl)ethyl)phenyl cyclohexanecarboxylate], the melting point is 122 to 124 °C.

Compound `CC1CCC(C(=O)Oc2ccc(C(CN(C)C)C3(O)CCCCC3)cc2)CC1` (stereo not shown) [1c, 4-(2-(Dimethylamino)-1-(1-hydroxycyclohexyl)ethyl)phenyl 4-methylcyclohexanecarboxylate] showed a melting point of 157 to 159 °C.

Compound `CC(C)C1CCC(C(=O)Oc2ccc(C(CN(C)C)C3(O)CCCCC3)cc2)CC1` (stereo not shown) [1d, 4-(2-(Dimethylamino)-1-(1-hydroxycyclohexyl)ethyl)phenyl 4-isopropylcyclohexanecarboxylate] gave a melting point of 149 to 152 °C.

`CN(C)CC(c1ccc(OC(=O)C2CCCCCC2)cc1)C1(O)CCCCC1` (stereo not shown) [1e, 4-(2-(Dimethylamino)-1-(1-hydroxycyclohexyl)ethyl)phenyl cycloheptanecarboxylate] had a melting point of 110 to 112 °C.

Regarding `CN(C)CC(c1ccc(OC(=O)c2ccoc2)cc1)C1(O)CCCCC1` (stereo not shown) [1g, 4-(2-(Dimethylamino)-1-(1-hydroxycyclohexyl)ethyl)phenyl furan-3-carboxylate], the melting point was 159 to 162 °C.

In turn, `CN(C)CC(c1ccc(OC(=O)c2ccsc2)cc1)C1(O)CCCCC1` (stereo not shown) [1h, 4-(2-(Dimethylamino)-1-(1-hydroxycyclohexyl)ethyl)phenyl thiophene-3-carboxylate] yielded a melting point of 168 to 172 °C.

The compound `CN(C)CC(c1ccc(OC(=O)c2cccnc2)cc1)C1(O)CCCCC1` (stereo not shown) [1i, 4-(2-(Dimethylamino)-1-(1-hydroxycyclohexyl)ethyl)phenyl nicotinate] came in with a melting point of 180 to 182 °C.

On to `COc1ccc(C(=O)Oc2ccc(C(CN(C)C)C3(O)CCCCC3)cc2)cc1` (stereo not shown) [1k, 4-(2-(Dimethylamino)-1-(1-hydroxycyclohexyl)ethyl)phenyl 4-methoxybenzoate], for which the melting point lay within 133 to 137 °C. Further, the “relative bioavailability compared with ODV” value in data set [1] is “higher relative bioavailability than ODV”.

`CN(C)CC(c1ccc(OC(=O)CCc2ccccc2)cc1)C1(O)CCCCC1` (stereo not shown) [1l, 4-(2-(Dimethylamino)-1-(1-hydroxycyclohexyl)ethyl)phenyl 3-phenylpropanoate]: the melting point fell in the range of 124 to 127 °C.

In turn, `CN(C)CC(c1ccc(OC(=O)C=Cc2ccccc2)cc1)C1(O)CCCCC1` (stereo not shown) [1m, 4-(2-(Dimethylamino)-1-(1-hydroxycyclohexyl)ethyl)phenyl cinnamate] came in with a melting point of 118 to 122 °C.

On to `CN(C)CC(c1ccc(OC(=O)c2ccc3c(c2)OCO3)cc1)C1(O)CCCCC1` (stereo not shown) [1n, 4-(2-(Dimethylamino)-1-(1-hydroxycyclohexyl)ethyl)phenyl benzo[d][1,3]dioxole-5-carboxylate], for which the melting point was in the range of 154 to 157 °C.

On to `CN(C)CC(c1ccc(OC(=O)c2ccc3c(c2)OCCO3)cc1)C1(O)CCCCC1` (stereo not shown) [1o, 4-(2-(Dimethylamino)-1-(1-hydroxycyclohexyl)ethyl)phenyl 2,3-dihydrobenzo[b][1,4]dioxine-6-carboxylate], for which the melting point was 159 to 162 °C.

Consider `CN(C)CC(c1ccc(O)cc1)C1(O)CCCCC1` (stereo not shown) [ODV, O-Desmethylvenlafaxine], for which the minimum effective dose in data set [2] is given as 50 mg/day. Moreover, the bioavailability in humans result in data set [3] is reported as “ca. 80%”.
